In US6355799B1, “Substituted benzene compounds, process for their preparation, and herbicidal and defoliant compositions containing them” (ISK Americas Incorporated, priority 1997, dated 2002):

Legend:
Format in all cases: in vivo
[1] = tested on: upland rice (Oryza sp., var. Tebonnet, RICE); experiment: Post-emerge test, crop safety; conditions: post-emerge, 14 days after application, rating scale 0-100
Outline: (§1)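 Applied at 15–1000 g ai/ha from acetone in 187 l/ha spray volume. Post-emergence applications included 0.25% v/v non-ionic surfactant and reached plants sown 8–21 days before. Pre-emergence applications were incorporated by surface watering. Efficacy or crop damage was rated on a 0–100 scale after 14 days.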

[2] = tested on: field corn (Zea mays L., var. Dekalb 535, CORN); experiment: Post-emerge test, crop safety; conditions: post-emerge, 14 days after application, rating scale 0-100
Outline: as §1

[3] = tested on: ivyleaf morningglory (Ipomoea hederacea, IPOHE); experiment: Post-emerge test, greenhouse herbicide activity screening; conditions: post-emerge, 14 days after application, rating scale 0-100
Outline: as §1

[4] = tested on: velvetleaf (Abutilon theophrasti, ABUTH); experiment: as above; conditions: post-emerge, 14 days after application, rating scale 0-100
Outline: as §1

[5] = tested on: barnyardgrass (Echinochloa crus-galli, ECHCG); experiment: as above; conditions: post-emerge, 14 days after application, rating scale 0-100
Outline: as §1

[6] = tested on: large crabgrass (Digitaria sanguinalis, DIGSA); experiment: as above; conditions: post-emerge, 14 days after application, rating scale 0-100
Outline: as §1

[7] = tested on: common ragweed (Ambrosia artemisizfolia L., AMBEL); experiment: as above; conditions: post-emerge, 14 days after application, rating scale 0-100
Outline: as §1

[8] = tested on: johnsongrass (Sorghum halepense, SORHA); experiment: as above; conditions: post-emerge, 14 days after application, rating scale 0-100
Outline: as §1

[9] = tested on: green foxtail (Setaria viridis, SETVI); experiment: as above; conditions: post-emerge, 14 days after application, rating scale 0-100
Outline: as §1

[10] = tested on: redroot pigweed (Amaranthus retroflexus, AMARE); experiment: as above; conditions: post-emerge, 14 days after application
Outline: as §1

[11] = tested on: lambsquarters (Chenopodium album, CHEAL); experiment: as above; conditions: post-emerge, 14 days after application, rating scale 0-100
Outline: as §1

[12] = tested on: sicklepod (Cassia obtusifolia, CASOB); experiment: as above; conditions: post-emerge, 14 days after application, rating scale 0-100
Outline: as §1

[13] = tested on: redroot pigweed (Amaranthus retroflexus, AMARE); experiment: Pre-emerge test, greenhouse herbicide activity screening; conditions: phytotoxicity rating 0-100, 14 days after application
Outline: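 Compounds in acetone were track-sprayed at 187 l/ha, 15–1000 g ai/ha, onto sandy loam pots. Pre-emerge seeds were sown one day before spraying, with surface watering afterwards. Post-emerge plants were at the 2–3 leaf stage and sprayed with 0.25% v/v non-ionic surfactant. Injury was rated 0–100 at 14 days.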

[14] = tested on: ivyleaf morningglory (Ipomoea hederacea, IPOHE); experiment: as above; conditions: phytotoxicity rating 0-100, 14 days after application
Outline: as §1

[15] = tested on: velvetleaf (Abutilon theophrasti, ABUTH); experiment: as above; conditions: phytotoxicity rating 0-100, 14 days after application
Outline: as §1

[16] = tested on: barnyardgrass (Echinochloa crus-galli, ECHCG); experiment: as above; conditions: phytotoxicity rating 0-100, 14 days after application
Outline: as §1

[17] = tested on: large crabgrass (Digitaria sanguinalis, DIGSA); experiment: as above; conditions: phytotoxicity rating 0-100, 14 days after application
Outline: as §1

[18] = tested on: common ragweed (Ambrosia artemisizfolia L., AMBEL); experiment: as above; conditions: phytotoxicity rating 0-100, 14 days after application
Outline: as §1

[19] = tested on: johnsongrass (Sorghum halepense, SORHA); experiment: as above; conditions: phytotoxicity rating 0-100, 14 days after application
Outline: as §1

[20] = tested on: green foxtail (Setaria viridis, SETVI); experiment: as above; conditions: phytotoxicity rating 0-100, 14 days after application
Outline: as §1

[21] = tested on: lambsquarters (Chenopodium album, CHEAL); experiment: as above; conditions: phytotoxicity rating 0-100, 14 days after application
Outline: as §1

[22] = tested on: sicklepod (Cassia obtusifolia, CASOB); experiment: as above; conditions: phytotoxicity rating 0-100, 14 days after application
Outline: as §1

[23] = tested on: upland rice (Oryza sp., var. Tebonnet, RICE); experiment: Pre-emerge test, crop safety; conditions: crop damage rating 0-100, 14 days after application
Outline: (§2)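 Fourteen days after spraying, crop and weed injury was graded visually from 0, no effect, to 100, every plant dead. Test substances were dissolved in acetone and applied at 15–1000 g ai/ha with a flat-fan nozzle. Application was either pre-emergence, one day after sowing, or post-emergence at the 2–3 leaf stage.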

[24] = tested on: field corn (Zea mays L., var. Dekalb 535, CORN); experiment: Pre-emerge test, crop safety; conditions: crop damage rating 0-100, 14 days after application
Outline: as §2

[25] = 63 g ai/ha, rating scale 0-100 (0 no damage, 100 complete death)
[26] = 250 g ai/ha, rating scale 0-100

Cn1c(C(F)(F)F)cc(=O)n(-c2ccc(C(N)=S)cc2NC(=O)c2ccc3ccccc3c2)c1=O [2-205]
99: Pre-emerge Herbicidal Activity ECHCG ([16]; 250 g ai/ha) | Pre-emerge Herbicidal Activity DIGSA ([17]; 250 g ai/ha)
95: Pre-emerge Herbicidal Activity IPOHE ([14]; 250 g ai/ha)
30: phytotoxicity rating RICE (crop damage) ([1]; 63 g ai/ha) | phytotoxicity rating RICE (crop damage) ([1]; 250 g ai/ha)
40: phytotoxicity rating AMARE [10, 26] | Pre-emerge Herbicidal Activity SORHA ([19]; 63 g ai/ha) | Pre-emerge Herbicidal Activity CASOB ([22]; 250 g ai/ha)
70: phytotoxicity rating IPOHE ([3]; 250 g ai/ha) | phytotoxicity rating AMBEL ([7]; 63 g ai/ha) | phytotoxicity rating CHEAL ([11]; 63 g ai/ha) | phytotoxicity rating CHEAL ([11]; 250 g ai/ha) | Pre-emerge Herbicidal Activity DIGSA ([17]; 63 g ai/ha) | Pre-emerge Herbicidal Activity SETVI ([20]; 63 g ai/ha) | Pre-emerge Herbicidal Activity RICE ([23]; 250 g ai/ha)
20: phytotoxicity rating CORN (crop damage) ([2]; 250 g ai/ha) | Pre-emerge Herbicidal Activity RICE ([23]; 63 g ai/ha)
85: Pre-emerge Herbicidal Activity SORHA ([19]; 250 g ai/ha)
90: phytotoxicity rating AMARE [10, 25] | phytotoxicity rating CASOB ([12]; 63 g ai/ha) | Pre-emerge Herbicidal Activity AMBEL ([18]; 250 g ai/ha)
0: phytotoxicity rating ECHCG ([5]; 63 g ai/ha) | phytotoxicity rating ECHCG ([5]; 250 g ai/ha) | phytotoxicity rating SORHA ([8]; 63 g ai/ha) | phytotoxicity rating SORHA ([8]; 250 g ai/ha) | Pre-emerge Herbicidal Activity IPOHE ([14]; 63 g ai/ha) | Pre-emerge Herbicidal Activity CASOB ([22]; 63 g ai/ha) | Pre-emerge Herbicidal Activity CORN ([24]; 63 g ai/ha)
100: phytotoxicity rating IPOHE ([3]; 63 g ai/ha) | phytotoxicity rating ABUTH ([4]; 63 g ai/ha) | phytotoxicity rating ABUTH ([4]; 250 g ai/ha) | phytotoxicity rating AMBEL ([7]; 250 g ai/ha) | phytotoxicity rating CASOB ([12]; 250 g ai/ha) | Pre-emerge Herbicidal Activity AMARE ([13]; 63 g ai/ha) | Pre-emerge Herbicidal Activity AMARE ([13]; 250 g ai/ha) | Pre-emerge Herbicidal Activity ABUTH ([15]; 63 g ai/ha) | Pre-emerge Herbicidal Activity ABUTH ([15]; 250 g ai/ha) | Pre-emerge Herbicidal Activity SETVI ([20]; 250 g ai/ha) | Pre-emerge Herbicidal Activity CHEAL ([21]; 63 g ai/ha) | Pre-emerge Herbicidal Activity CHEAL ([21]; 250 g ai/ha)
10: phytotoxicity rating CORN (crop damage) ([2]; 63 g ai/ha) | phytotoxicity rating DIGSA ([6]; 63 g ai/ha) | phytotoxicity rating DIGSA ([6]; 250 g ai/ha) | phytotoxicity rating SETVI ([9]; 63 g ai/ha) | phytotoxicity rating SETVI ([9]; 250 g ai/ha)
50: Pre-emerge Herbicidal Activity CORN ([24]; 250 g ai/ha)
80: Pre-emerge Herbicidal Activity ECHCG ([16]; 63 g ai/ha) | Pre-emerge Herbicidal Activity AMBEL ([18]; 63 g ai/ha)

COC(=O)N(C(=O)OC)c1c(OC)c(Cl)cc(F)c1-n1c(=O)cc(C(F)(F)F)n(C)c1=O [4-2]
70: phytotoxicity rating IPOHE ([3]; 63 g ai/ha) | phytotoxicity rating ABUTH ([4]; 63 g ai/ha) | Pre-emerge Herbicidal Activity SORHA ([19]; 250 g ai/ha) | Pre-emerge Herbicidal Activity SETVI ([20]; 63 g ai/ha)
100: phytotoxicity rating IPOHE ([3]; 250 g ai/ha) | phytotoxicity rating ABUTH ([4]; 250 g ai/ha) | Pre-emerge Herbicidal Activity AMARE ([13]; 63 g ai/ha) | Pre-emerge Herbicidal Activity AMARE ([13]; 250 g ai/ha) | Pre-emerge Herbicidal Activity IPOHE ([14]; 250 g ai/ha) | Pre-emerge Herbicidal Activity ABUTH ([15]; 63 g ai/ha) | Pre-emerge Herbicidal Activity ABUTH ([15]; 250 g ai/ha) | Pre-emerge Herbicidal Activity AMBEL ([18]; 250 g ai/ha) | Pre-emerge Herbicidal Activity SETVI ([20]; 250 g ai/ha) | Pre-emerge Herbicidal Activity CHEAL ([21]; 63 g ai/ha) | Pre-emerge Herbicidal Activity CHEAL ([21]; 250 g ai/ha)
0: phytotoxicity rating RICE (crop damage) ([1]; 63 g ai/ha) | phytotoxicity rating CORN (crop damage) ([2]; 63 g ai/ha) | phytotoxicity rating ECHCG ([5]; 63 g ai/ha) | phytotoxicity rating ECHCG ([5]; 250 g ai/ha) | phytotoxicity rating DIGSA ([6]; 63 g ai/ha) | phytotoxicity rating DIGSA ([6]; 250 g ai/ha) | phytotoxicity rating AMBEL ([7]; 63 g ai/ha) | phytotoxicity rating SORHA ([8]; 63 g ai/ha) | phytotoxicity rating SORHA ([8]; 250 g ai/ha) | phytotoxicity rating SETVI ([9]; 63 g ai/ha) | phytotoxicity rating CASOB ([12]; 63 g ai/ha) | Pre-emerge Herbicidal Activity IPOHE ([14]; 63 g ai/ha) | Pre-emerge Herbicidal Activity ECHCG ([16]; 63 g ai/ha) | Pre-emerge Herbicidal Activity SORHA ([19]; 63 g ai/ha) | Pre-emerge Herbicidal Activity CASOB ([22]; 63 g ai/ha) | Pre-emerge Herbicidal Activity CORN ([24]; 63 g ai/ha)
10: phytotoxicity rating CORN (crop damage) ([2]; 250 g ai/ha) | Pre-emerge Herbicidal Activity RICE ([23]; 63 g ai/ha)
30: phytotoxicity rating RICE (crop damage) ([1]; 250 g ai/ha) | phytotoxicity rating AMBEL ([7]; 250 g ai/ha) | Pre-emerge Herbicidal Activity AMBEL ([18]; 63 g ai/ha)
40: phytotoxicity rating CHEAL ([11]; 63 g ai/ha) | phytotoxicity rating CASOB ([12]; 250 g ai/ha) | Pre-emerge Herbicidal Activity DIGSA ([17]; 63 g ai/ha)
5: Pre-emerge Herbicidal Activity CORN ([24]; 250 g ai/ha)
50: phytotoxicity rating AMARE [10, 25]
90: Pre-emerge Herbicidal Activity DIGSA ([17]; 250 g ai/ha)
85: phytotoxicity rating AMARE [10, 26]
95: phytotoxicity rating CHEAL ([11]; 250 g ai/ha)
20: phytotoxicity rating SETVI ([9]; 250 g ai/ha) | Pre-emerge Herbicidal Activity RICE ([23]; 250 g ai/ha)
80: Pre-emerge Herbicidal Activity ECHCG ([16]; 250 g ai/ha) | Pre-emerge Herbicidal Activity CASOB ([22]; 250 g ai/ha)
